{
  "source": "patent US20110077230A1",
  "about": "“COPPER ORGANOCOMPLEXES, USE THEREOF AS ANTITUMOR MEANS AND FOR PROTECTING HEALTHY TISSUE FROM IONIZING RADIATION” (CHARITE - UNIVERSITATSMEDIZIN BERLIN, priority 2008, published 2011)",
  "key": {"[1]": {"system": "BJAB cells (lymphoma cell line)", "test": "Induction of apoptosis (DNA fragmentation, propidium iodide, FACS) in BJAB cells", "format": "cell-based, human", "conditions": "0.1 mmol of complex A, 72 hours", "procedure": "BJAB cells (lymphoma cell line) at a concentration of 1×10^5/ml were treated with increasing concentrations of complex A dissolved in DMSO and incubated for 72 hours at 37° C. and 5% CO2. Following propidium iodide staining, the DNA fragments were detected using flow cytometry (FACS analysis). KO (untreated cell suspension) and DMSO were carried along in an equivalent treatment."}, "BJAB cells": {"system": "BJAB cells", "test": "Change in mitochondrial membrane potential (JC-1, flow cytometry) in BJAB cells", "format": "cell-based, human", "conditions": "48 hours, concentration-dependent", "procedure": "Following treatment of the BJAB cells with different concentrations of complex A, carrying along a zero control and a solvent control, the cells were incubated for 48 hours at a temperature of 37° C. and 5% CO2. […] A concentration-dependent change of the mitochondrial membrane potential induced by complex A is found in more than 30% of the cells."}, "lymphoma cells (BJAB)": {"system": "lymphoma cells (BJAB)", "test": "Combined administration of complex A and cytarabine, DNA fragmentation", "format": "cell-based, human", "conditions": "48 hours", "procedure": "Incubation was performed for 48 hours at 37° C. and 5% CO2, carrying along zero and solvent controls. DNA fragmentation is determined by flow cytometry after staining the cells with propidium iodide."}, "[2]": {"system": "Human lymphoma cells (BJAB)", "test": "In vivo inhibition of tumor growth, BJAB implanted in SCID mice", "conditions": "10 mg/kg peroral, suspended in olive oil", "procedure": "Human lymphoma cells (BJAB) were implanted in six SCID mice. After a tumor with a diameter of 5 mm had formed, the mice were subjected to peroral treatment with complex A at a dose of 10 mg/kg, suspended in olive oil. The control group consisted of 10 animals treated with olive oil only.\n* denotes the significance (p≦0.05) in the Mann-Whitney U-test."}, "[3]": {"system": "colon adenocarcinoma tumor (AKATOL)", "test": "Transplanted colon adenocarcinoma (AKATOL), peroral administration", "format": "in vivo, mice of the BALB line", "conditions": "for Average weight of tumor: days 3 to 10, day 21", "procedure": "Tumor cells were transplanted in mice of the BALB line by injection into the thighs. 3 of 4 groups received the respective preparation on the peroral route 3, 4, 5, 6, 7, 8, 9 and 10 days after tumor implantation.\nGroup I: 10 mg/kg complex A suspended in olive oil.\nGroup II: 5 mg/kg complex A suspended in olive oil.\nGroup III: 10 mg/kg sarcolysine suspended in olive oil.\nOn day 21 of the experiment the animals were sacrificed and examined."}, "[4]": {"system": "Ehrlich ascites adenocarcinoma", "test": "Ehrlich ascites adenocarcinoma in mice", "format": "in vivo, white mice", "procedure": "The tumor was implanted intraabdominally in white mice of no particular race.\nGroup I received complex A orally as a suspension in olive oil at a dosage of 10 mg/kg 3, 4, 5, 6, 7, 8, 9 and 10 days after tumor implantation.\nGroup II received the same treatment, but using sarcolysine instead of complex A.\nGroup III received no treatment.\nThe animals were sacrificed and examined on the 11th day after tumor implantation."}, "Walker carcinosarcoma": {"system": "Walker carcinosarcoma", "test": "Nitrosyl complexes of hem iron (EPR) in Walker carcinosarcoma", "format": "in vivo, rats", "conditions": "30 mg/kg intraabdominally in liposomes, especially with hyperglycemia and ultrasound", "excerpt": "The oxygen metabolism in malignant cells is affected in such a way that increased NO production in these cells results in increased binding of NO to the hem iron, thereby disturbing the normal function thereof. The formation of such NO bonds becomes manifest in the EPR spectrum as a characteristic triplet overlying a singlet.\nThe effect of complex A on the concentration of Fe—NO bonds was investigated in an experiment using rats. The Walker carcinosarcoma was transplanted in the rats. 17 days after transplantation the animals were administered intraabdominally with complex A at a dosage of 30 mg/kg, suspended in liposomes from egg lecithin. Some of the animals also received glucose or glucose plus ultrasound."}, "[5]": {"system": "Ehrlich ascites carcinoma (EAC) cells", "test": "NADH state (fluorescence) in EAC cells", "format": "cell-based, mice", "procedure": "(§1) The Ehrlich ascites carcinoma (EAC) was obtained from white male mice of the strain MNR1 and the thymocytes from the thymus of rats of the Wistar line. Vitality of the cells was tested by vital staining using trypan blue and experiments and determined to be no less than 95% in all experiments. The NADH state in the EAC cells was assessed with reference to their fluorescence intensity. Measurement of the intracellular calcium concentration was performed according to the standard methodology of fluorescence using chlortetracycline. The membrane potential was measured using the fluorescent dye No. 1104. NADH is a source of electrons in the oxidative phosphorylation process. […] These effects are directed to inhibiting the NAD-dependent dehydrogenase. As a result, the respiratory chain in the tumor cells is inhibited."}, "thymocytes": {"system": "thymocytes", "test": "Cytosolic calcium (chlortetracycline fluorescence) in thymocytes", "format": "cell-based, rats of the Wistar line", "conditions": "depending on the dose", "procedure": "as §1\nThe concentration of intracellular calcium is a trigger for a number of intracellular processes (FIG. 17c, 17d)."}, "[6]": {"system": "hematopoietic cells in the spleen", "test": "Radioprotective effect in irradiated mice", "format": "in vivo, white mice", "conditions": "6 Gray; 5 mg/kg two hours prior to and three days after irradiation; day 9", "procedure": "White mice of no particular race were irradiated with a sublethal dose of 6 Gray. […] The animals were sacrificed on day 9 after irradiation, and the number of hematopoietic cells in the spleen was determined. No hematopoietic cells were detected in the spleen of untreated animals."}, "[7]": {"system": "Hep-2 tumor cells of human laryngeal carcinoma", "test": "Copper uptake by Hep-2 cells (EPR)", "format": "cell-based", "procedure": "Complex A dissolved in Tween 80 was mixed with liposomes from lecithin. This mixture was added with a culture of Hep-2 cells, and the EPR spectra were recorded over time. A culture having no complex A preparation was measured for comparison. The EPR spectra allow quantitative determination of the copper content in the tumor cells. […] This corresponds to an intake of 10 copper-containing molecules in a cell. This saturation value of the cells is reached within 1.5 to 2 hours (FIG. 21). In addition, the cell suspension was purified by filtration, and the filtrate containing the cellular components was fractionated using a centrifuge."}, "[8]": {"system": "human mammary gland tumor cells", "test": "In vitro effect on human mammary gland tumor cells (trypan blue, photography)", "format": "cell-based", "procedure": "From a patient with mammary carcinoma already showing signs of decay, postoperational material was collected and the tumor cells were separated therefrom. A suspension of these tumor cells was added with trypan blue dye and complex A. During the course of the test, three cells situated closely to each other (A, B and C) were documented by photography (FIGS. 22a, 22b and 22c). After incubating for 18 minutes, wrinkling of the membrane of cell A and invagination of the membrane of cell B can be recognized. After 28 minutes of incubation, cell fragments become stained with trypan blue, a sign that apoptosis has begun. After 43 minutes of incubation, membrane components and the contents thereof detach from the cells."}},
  "data": [
    {"substance": "Copper-sarcolysine hydrochloride complex [complex A]", "values": [
      {"measurement": "induction of apoptosis, % of the cells", "setting": "[1]", "result": 43.5, "unit": "%"},
      {"measurement": "cells with change of the mitochondrial membrane potential", "setting": "BJAB cells", "result": "more than 30%"},
      {"measurement": "synergy effect with cytarabine, induction of apoptosis", "setting": "lymphoma cells (BJAB)", "result": 129, "unit": "%"},
      {"measurement": "inhibition of tumor growth", "setting": "[2]", "result": "significant inhibition of tumor growth"},
      {"measurement": "% inhibition", "setting": "[3]; 5 mg/kg peroral in olive oil", "result": 68, "unit": "%"},
      {"measurement": "Average weight of tumor", "setting": "[3]; 5 mg/kg peroral in olive oil", "result": 1.04, "unit": "g"},
      {"measurement": "% inhibition", "setting": "[3]; 10 mg/kg peroral in olive oil", "result": 81.5, "unit": "%"},
      {"measurement": "Average weight of tumor", "setting": "[3]; 10 mg/kg peroral in olive oil", "result": 0.71, "unit": "g"},
      {"measurement": "% inhibition", "setting": "[4]; 10 mg/kg orally", "result": 75.3, "unit": "%"},
      {"measurement": "Average MI of bone marrow", "setting": "[4]; 10 mg/kg orally", "result": "0.95 ± 0.47 ‰"},
      {"measurement": "Average MI of tumor cells", "setting": "[4]; 10 mg/kg orally", "result": "1.0 ± 0.7 ‰"},
      {"measurement": "Average number of tumor cells", "setting": "[4]; 10 mg/kg orally in olive oil, days 3 to 10, day 11", "result": "40′ 10^6"},
      {"measurement": "concentration of Fe—NO bonds (EPR)", "setting": "Walker carcinosarcoma", "result": "significantly reduces"},
      {"measurement": "response to oligomycin", "setting": "[5]", "result": "reduce the response to oligomycin"},
      {"measurement": "concentration of cytosolic calcium", "setting": "thymocytes", "result": "increase"},
      {"measurement": "number of colonies of hematopoietic cells in the spleen", "setting": "[6]", "result": "about 40 colonies"},
      {"measurement": "copper absorbed by Hep-2 cells", "setting": "[7]; complex A in Tween 80 with lecithin liposomes, saturation value", "result": "4.5×10^13 spin per gram"},
      {"measurement": "intake of copper-containing molecules in a cell", "setting": "[7]; corresponds to the spin value", "result": 10, "unit": "molecules in a cell"},
      {"measurement": "intracellular accumulation of the copper complex", "setting": "[7]; fractionated filtrate, EPR signal of copper", "result": "accumulated almost entirely in the nuclear chromatin"},
      {"measurement": "incubation time to wrinkling / invagination of the cell membrane", "setting": "[8]", "result": 18, "unit": "min"},
      {"measurement": "incubation time until cell fragments stain with trypan blue (apoptosis has begun)", "setting": "[8]", "result": 28, "unit": "min"},
      {"measurement": "incubation time until membrane components and contents detach from the cells", "setting": "[8]", "result": 43, "unit": "min"}
    ]}
  ]
}
